Where two headings read alike, the source gives them in different places.
Tests used:
[1] = biological target: T1, hSEP (sol hu)(his)6; His6-tagged hSEP ectodomain (Homo sapiens, UniProt Q495T6); experiment: Enzymatic breakdown of CNP and VIP by hSEP and its inhibition, in vitro, HPLC; type: biochemical
T1 construct: His6-tagged hSEP ectodomain; His6; purchased Innogenetics, Ghent, Belgium
T1 sequence (Q495T6 49-779 limits assumed): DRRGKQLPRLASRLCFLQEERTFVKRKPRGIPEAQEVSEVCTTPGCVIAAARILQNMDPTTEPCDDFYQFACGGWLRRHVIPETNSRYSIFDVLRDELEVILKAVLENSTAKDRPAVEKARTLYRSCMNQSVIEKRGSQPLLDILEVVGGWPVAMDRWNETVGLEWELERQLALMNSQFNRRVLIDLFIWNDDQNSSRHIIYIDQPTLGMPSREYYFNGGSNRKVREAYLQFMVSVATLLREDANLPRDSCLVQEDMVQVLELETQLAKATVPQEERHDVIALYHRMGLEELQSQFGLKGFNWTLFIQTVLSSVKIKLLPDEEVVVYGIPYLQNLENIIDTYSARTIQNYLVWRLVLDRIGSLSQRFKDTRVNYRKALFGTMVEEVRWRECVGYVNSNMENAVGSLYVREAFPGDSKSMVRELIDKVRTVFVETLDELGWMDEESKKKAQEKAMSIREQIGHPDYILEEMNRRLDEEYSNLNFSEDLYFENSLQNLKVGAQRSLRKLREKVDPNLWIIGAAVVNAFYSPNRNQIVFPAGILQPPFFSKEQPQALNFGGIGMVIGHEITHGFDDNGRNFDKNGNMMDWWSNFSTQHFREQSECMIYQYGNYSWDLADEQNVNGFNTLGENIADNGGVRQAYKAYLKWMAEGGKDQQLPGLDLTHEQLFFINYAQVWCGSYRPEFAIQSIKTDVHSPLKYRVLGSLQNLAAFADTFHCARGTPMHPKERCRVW
Method: (§1) The inhibition of the enzymatic breakdown of CNP and VIP by the compounds used according to the invention was measured in an enzymatic in vitro assay according to the following protocol:
(§2) All test compounds were dissolved in DMSO at 10 mM and further diluted with assay buffer.
(§3) 80 μl of assay buffer, 10 μl of enzyme working solution (NEP or hSEP) and 10 μl of peptide stock solution (VIP or CNP) were mixed in an Eppendorf vial and incubated for 120 min. at 37° C. The enzymatic reaction was subsequently terminated by heating to 95° C. for 5 min. After centrifugation (Heraeus Biofuge B, 3 min) the supernatant was subjected to HPLC.
70 μl of assay buffer, 10 μl of enzyme working solution (NEP or hSEP) and 10 μl of a test compound solution were mixed in an Eppendorf vial and preincubated at 37° C. for 15 minutes. Then, 10 μl of peptide stock solution (VIP or CNP) was added and the reaction mixture was incubated at 37° C. for 60 min. to allow enzymatic hydrolysis. The enzymatic reaction was subsequently terminated by heating to 95° C. for 5 min. After centrifugation (Heraeus Biofuge B, 3 min) the supernatant was subjected to HPLC. In order to separate the remaining substrate from the cleavage products, a reversed phase HPLC technique with a CC 125/4 Nucleosil 300/5 C18 RP column and a CC 8/4 Nucleosil 100/5 C18 precolumn (Macherey-Nagel, Düren, Germany) was used. 60 μl of the reaction samples were injected into the HPLC and the column was eluted at a flow rate of 1 ml/min with the following gradient:
(§4) All peptides were detected by absorbance at 214 nm (UV spectroscopy). The percentage (=%) of hydrolysis was calculated on the basis of the peak area of the undegraded peptide for an enzyme containing sample Y in correlation to a sample containing the same concentration of peptide without enzyme (blank) by the following equation: % hydrolysis=100*(blank−Y)
Basis of the calculation of % inhibition is the peak area of the undegraded peptide (VIP or CNP) for an inhibitor containing sample X in comparison to samples containing only peptide (blank) or peptide and enzyme without inhibitor (control) according to the following equation: % inhib=100*(X−control)/(blank−control)
All samples were run in duplicate and mean values were used. A solvent control (0.1% DMSO) was added to each assay run. CNP and VIP were cleaved by NEP and hSEP in vitro.

[2] = system: NEP (prepared from pig kidney cortex); experiment: Enzymatic breakdown of CNP and VIP by NEP and its inhibition, in vitro, HPLC; type: biochemical
Method: as §1, §2, §3
70 μl of assay buffer, 10 μl of enzyme working solution (NEP or hSEP) and 10 μl of a test compound solution were mixed in an Eppendorf vial and preincubated at 37° C. for 15 minutes. Then, 10 μl of peptide stock solution (VIP or CNP) was added and the reaction mixture was incubated at 37° C. for 60 min. to allow enzymatic hydrolysis. […]
as §4, with “hydrolysis=100*(blank−Y) […]” for “hydrolysis=100*(blank−Y)”

Q: What does the source list for “{(3S)-3-[({1-[(2″rel1″)-2-ethoxycarbonyl)-4-(isopropylamino)-4-oxobutyl]cyclopentyl}-carbonyl)amino]-2-oxo-2,3,4,5-tetrahydro-1H-1-benzazepin-1-yl}acetic acid [Example 4]”?
A: IC50 ([1]; substrate CNP (32-53), read-out: inhibition of breakdown of CNP by hSEP, IC50): 1 nM; IC50 ([1]; substrate VIP, read-out: inhibition of breakdown of VIP by hSEP, IC50): 3.1 nM; IC50 ([2]; substrate CNP (32-53), read-out: inhibition of breakdown of CNP by NEP, IC50): 10.1 nM; IC50 ([2]; substrate VIP, read-out: inhibition of breakdown of VIP by NEP, IC50): 3.1 nM

From US20080085889A1, “Amidomethyl-Substituted 1-(Carboxyalkyl) Cyclopentyl-Carbonylamino-Benzazepine-N-Acetic Acid Compounds, Process and Intermediate Products for Their Preparation and Pharmaceutical Compositions Containing Them” (SOLVAY PHARMACEUTICALS GmbH, priority 2003, published 2008)
